Measurements from PMC7015555, “Transthyretin-Binding Activity of Complex Mixtures Representing the Composition of Thyroid-Hormone Disrupting Contaminants in House Dust and Human Serum” (Environmental Health Perspectives, 2020).
Where two headings read alike, the source gives them in different places.

Key:
[1] = set-up: method as in Jahnke et al. 2004; details: rodents; ref Jahnke et al. 2004; cited from earlier work
[2] = biological target: T1, TTR (Homo sapiens, UniProt P02766); experiment: FITC-T4 TTR competitive binding assay; details: pH 8
[3] = biological target: TBG; details: ref Salvatore et al. 2016; read-out: Kd(TBG) for T4; cited from earlier work
[4] = set-up: method as in Jahnke et al. 2004; details: humans; ref Jahnke et al. 2004; cited from earlier work
[5] = tested on: TTR; details: ref Hamers et al. 2008; Weiss et al. 2009; read-out: IC20 in the radioligand binding assay; cited from earlier work
[6] = biological target: T1, TTR; experiment: Saturation experiment for the FITC-T4-TTR complex; format: binding; details: 30 nM TTR, FITC-T4 0 to 1,000 nM, no inhibitor
Protocol: Competitive TTR-binding assays were performed by incubating human TTR ( 30nM ) with 110nM of FITC- T4 in the presence of test compounds, reference compound T4 , or carrier solvent control (1% DMSO). For each incubation with TTR, a parallel incubation was performed without TTR to correct for background fluorescence of the unbound FITC- T4 . In the competitive binding experiments, these control incubations were also used to check for possible quenching of FITC- T4 fluorescence by the test compounds and for autofluorescence of the test compounds themselves, neither of which was observed. […]
The Kd value for the FITC-T4-TTR complex was determined in a saturation binding experiment with various concentrations of FITC-T4 (ranging from LT = 0 to LT = 1E-6 M) in the absence or the presence of a fixed concentration of TTR (PT = 3E-8 M).
Using the least-squares method, a non-linear regression fit was performed on the corrected fluorescence Fc as a function of LT, yielding parameter estimates p*(q-1)=0.644 (AFU/nM) and […]
S1.4 Derivation of Ki from the ICx determined in the bioassay
The inhibitor-specific ICx value determined in the bioassay is defined as the total inhibitor concentration [IT] at which the concentration of ligand-protein complex [PLx] is (100-x)% of the concentration of ligand-protein complex in the absence of inhibitor [PL0], i.e. […]

IC20 [2]	Kd [6]	SMILES	T4 half-life time [1]	Kd [3]	T4 half-life time [4]	IC20 [5]
21 nM	–	NC(Cc1cc(I)c(Oc2cc(I)c(O)c(I)c2)c(I)c1)C(=O)O (stereo not drawn) [Thyroxine ( T4 ), thyroxine]	12 to 24 h	0.1 nM	120 to 220 h	~30 nM
–	140 nM	O=C1OC2(c3ccc(O)cc3Oc3cc(O)ccc32)c2ccc(NC(=S)NC(Cc3cc(I)c(Oc4cc(I)c(O)c(I)c4)c(I)c3)C(=O)O)cc21 (stereo not drawn) [FITC- T4]	–	–	–	–
